Measurements taken from patent US6469023B1, “Heterocyclic spiro-derivative” (Daiichi Pharmaceutical Co., Ltd., priority 1995, dated 2002).
Converted amounts (≈) assume the structure as drawn. Read-outs that look alike come from different tables or passages of the source.

What was measured:
Experiment in all cases: Antibacterial activity, standard method of Japan Society of Chemotherapy (MIC)
Assay type in all cases: cell-based
Ps. aeruginosa, 32121 = test system: Ps. aeruginosa, 32121
Procedure: (§1) The following Inventive and Reference Examples are provided to further illustrate the present invention, but not by way of limitation. The antibacterial activity of optically active compounds of interest was tested in accordance with the standard method designated by Japan Society of Chemotherapy. The results are shown in Table 1 as MIC (μg/ml). [drawing 10]

Ps. aeruginosa, 32104 = test system: Ps. aeruginosa, 32104
Procedure: as §1

S. flexneri, 2A 5503 = test system: S. flexneri, 2A 5503
Procedure: as §1

[1] = test system: Str. faeccalis, ATCC-19433
Procedure: as §1

[2] = test system: Ps. maltophilia, IID-1275
Procedure: as §1

E. coli, NIHJ = test system: E. coli, NIHJ
Procedure: as §1

S. aureus, 87037 = test system: S. aureus, 87037
Procedure: as §1

S. epidermidis, 56500 = test system: S. epidermidis, 56500
Procedure: as §1

S. aureus, 209P = test system: S. aureus, 209P
Procedure: as §1

Ser. marcescens, 10100 = test system: Ser. marcescens, 10100
Procedure: as §1

Pr. mirabilis, IFO-3849 = test system: Pr. mirabilis, IFO-3849
Procedure: as §1

Str. pyogenes, G-36 = test system: Str. pyogenes, G-36
Procedure: as §1

Pr. vulgaris, 08601 = test system: Pr. vulgaris, 08601
Procedure: as §1

[3] = Pseudomonas aeruginosa, read-out: MIC
[4] = Pseudomonas aeruginosa, 32104, Ps. aeruginosa, read-out: MIC
[5] = Shigella flexneri, 2A5503, read-out: MIC
[6] = Stenotrophomonas maltophilia, IID1275, Ps. maltophilia, read-out: MIC
[7] = Escherichia coli, read-out: MIC
[8] = Staphylococcus aureus, 87037, S. aureus, read-out: MIC
[9] = Staphylococcus epidermidis, 56500, S. epidermidis, read-out: MIC
[10] = Staphylococcus aureus, read-out: MIC
[11] = Serratia marcescens, read-out: MIC
[12] = Proteus mirabilis, IFO3849, Pr. mirabilis, read-out: MIC
[13] = Streptococcus pyogenes, G36, Str. pyogenes, read-out: MIC
[14] = Proteus vulgaris, 08601, Pr. vulgaris, read-out: MIC

`Nc1c(F)c(N2CCC3(CC3N)C2)c(F)c2c1c(=O)c(C(=O)O)cn2[C@@H]1C[C@@H]1F` (single isomer, unassigned) [Example 1] gave an MIC (Ps. aeruginosa, 32121; [3]) of 0.025 µg/mL (≈ 0.0612 µM), an MIC (Ps. aeruginosa, 32104; [4]) of 0.025 µg/mL (≈ 0.0612 µM) and an MIC (S. flexneri, 2A 5503; [5]) of no more than 3 ng/mL. For the same compound, the MIC ([1]; read-out: MIC) was 0.025 µg/mL (≈ 0.0612 µM), the MIC [2, 6] was 0.025 µg/mL (≈ 0.0612 µM) and the MIC (E. coli, NIHJ; [7]) was no more than 3 ng/mL. The MIC (S. aureus, 87037; [8]) was 0.05 µg/mL (≈ 0.122 µM), the MIC (S. epidermidis, 56500; [9]) was no more than 0.003 µg/mL and the MIC (S. aureus, 209P; [10]) was no more than 3 ng/mL. It also gave an MIC (Ser. marcescens, 10100; [11]) of 0.025 µg/mL (≈ 0.0612 µM), an MIC (Pr. mirabilis, IFO-3849; [12]) of 0.013 µg/mL (≈ 0.0318 µM) and an MIC (Str. pyogenes, G-36; [13]) of 0.013 µg/mL (≈ 0.0318 µM). It also gave an MIC (Pr. vulgaris, 08601; Pr. vulgaris) of 0.006 µg/mL (≈ 0.0147 µM).
`Nc1c(F)c(N2CCC3(CC3N)C2)c(F)c2c1c(=O)c(C(=O)O)cn2[C@@H]1C[C@@H]1F` (single isomer, unassigned) [Example 4] was tested, and the MIC (Ps. aeruginosa, 32121) was 0.025 µg/mL (≈ 0.0612 µM), the MIC (Ps. aeruginosa, 32104; Ps. aeruginosa) was 0.05 µg/mL (≈ 0.122 µM) and the MIC (S. flexneri, 2A 5503) was “≦0.003 μg/ml”. For the same compound, the MIC [1] was 0.025 µg/mL (≈ 0.0612 µM), the MIC ([2]; Ps. maltophilia) was 0.025 µg/mL (≈ 0.0612 µM) and the MIC (E. coli, NIHJ) was “≦0.003 μg/ml”. For the same compound, the MIC (S. aureus, 87037; S. aureus) was 0.05 µg/mL (≈ 0.122 µM), the MIC (S. epidermidis, 56500; S. epidermidis) was “≦0.003 μg/ml” and the MIC (S. aureus, 209P) was “≦0.003 μg/ml”. For the same compound, the MIC (Ser. marcescens, 10100) was 0.025 µg/mL (≈ 0.0612 µM), the MIC (Pr. mirabilis, IFO-3849; Pr. mirabilis) was 0.025 µg/mL (≈ 0.0612 µM) and the MIC (Str. pyogenes, G-36; Str. pyogenes) was 0.013 µg/mL (≈ 0.0318 µM). The MIC (Pr. vulgaris, 08601; Pr. vulgaris) was 0.013 µg/mL (≈ 0.0318 µM).
Work on `Cc1c(N2CCC3(CC3N)C2)c(F)c(N)c2c(=O)c(C(=O)O)cn([C@@H]3C[C@@H]3F)c12` (single isomer, unassigned) [Example 5] yielded an MIC (Ps. aeruginosa, 32121; [3]) of 0.025 µg/mL (≈ 0.0618 µM), an MIC (Ps. aeruginosa, 32104; [4]) of 0.05 µg/mL (≈ 0.124 µM) and an MIC (S. flexneri, 2A 5503; [5]) of no more than 3 ng/mL. It also gave an MIC ([1]; read-out: MIC) of 0.05 µg/mL (≈ 0.124 µM), an MIC [2, 6] of 0.05 µg/mL (≈ 0.124 µM) and an MIC (E. coli, NIHJ; [7]) of no more than 3 ng/mL. The MIC (S. aureus, 87037; [8]) was 0.1 µg/mL (≈ 0.247 µM), the MIC (S. epidermidis, 56500; [9]) was 0.013 µg/mL (≈ 0.0321 µM) and the MIC (S. aureus, 209P; [10]) was no more than 3 ng/mL. It also gave an MIC (Ser. marcescens, 10100; [11]) of 0.05 µg/mL (≈ 0.124 µM), an MIC (Pr. mirabilis, IFO-3849; [12]) of 0.05 µg/mL (≈ 0.124 µM) and an MIC (Str. pyogenes, G-36; [13]) of 0.05 µg/mL (≈ 0.124 µM). The MIC (Pr. vulgaris, 08601; [14]) was 0.013 µg/mL (≈ 0.0321 µM).
`Cc1c(N2CCC3(CC3N)C2)c(F)cc2c(=O)c(C(=O)O)cn([C@@H]3C[C@@H]3F)c12` (single isomer, unassigned) [Example 6] showed an MIC (Ps. aeruginosa, 32121; [3]) of 0.025 µg/mL (≈ 0.0642 µM), an MIC (Ps. aeruginosa, 32104; [4]) of 0.05 µg/mL (≈ 0.128 µM) and an MIC (S. flexneri, 2A 5503; [5]) of no more than 3 ng/mL. The MIC ([1]; read-out: MIC) was 0.05 µg/mL (≈ 0.128 µM), the MIC [2, 6] was 0.05 µg/mL (≈ 0.128 µM) and the MIC (E. coli, NIHJ; [7]) was no more than 3 ng/mL. It also gave an MIC (S. aureus, 87037; S. aureus) of 0.10 µg/mL (≈ 0.257 µM), an MIC (S. epidermidis, 56500; S. epidermidis) of 0.013 µg/mL (≈ 0.0334 µM) and an MIC (S. aureus, 209P; [10]) of no more than 3 ng/mL. It also gave an MIC (Ser. marcescens, 10100; [11]) of 0.025 µg/mL (≈ 0.0642 µM), an MIC (Pr. mirabilis, IFO-3849; [12]) of 0.013 µg/mL (≈ 0.0334 µM) and an MIC (Str. pyogenes, G-36; Str. pyogenes) of 0.013 µg/mL (≈ 0.0334 µM). The MIC (Pr. vulgaris, 08601; [14]) was no more than 0.003 µg/mL.
`Cc1c(N2CCC3(CC3N)C2)c(F)cc2c(=O)c(C(=O)O)cn([C@@H]3C[C@@H]3F)c12` (single isomer, unassigned) [Example 7] was tested, and the MIC (Ps. aeruginosa, 32121) was 0.025 µg/mL (≈ 0.0642 µM), the MIC (Ps. aeruginosa, 32104; Ps. aeruginosa) was 0.05 µg/mL (≈ 0.128 µM) and the MIC (S. flexneri, 2A 5503) was “≦0.003 μg/ml”. The MIC [1] was 0.025 µg/mL (≈ 0.0642 µM), the MIC ([2]; Ps. maltophilia) was 0.025 µg/mL (≈ 0.0642 µM) and the MIC (E. coli, NIHJ) was “≦0.003 μg/ml”. For the same compound, the MIC (S. aureus, 87037; S. aureus) was 0.25 µg/mL (≈ 0.642 µM), the MIC (S. epidermidis, 56500; S. epidermidis) was 0.006 µg/mL (≈ 0.0154 µM) and the MIC (S. aureus, 209P) was “≦0.003 μg/ml”. For the same compound, the MIC (Ser. marcescens, 10100) was 0.025 µg/mL (≈ 0.0642 µM), the MIC (Pr. mirabilis, IFO-3849; Pr. mirabilis) was 0.013 µg/mL (≈ 0.0334 µM) and the MIC (Str. pyogenes, G-36; Str. pyogenes) was 0.006 µg/mL (≈ 0.0154 µM). For the same compound, the MIC (Pr. vulgaris, 08601; Pr. vulgaris) was “≦0.003 μg/ml”.
